This assay relates to α-glucosidase. The assay is described as follows: In vitro α-glucosidase inhibitory activity (PNPG, 405 nm). Conditions: sample 0.5%, 37° C., pH 6.8. It is filed as biochemical. On the procedure:
The method for determining α-glucosidase activity is as follows: First, the solution of substrate 4-Nitrophenyl […] (PNPG) with a concentration of 1.505 mg/mL (5 mmol/L of PNPG dissolved in 0.1 mol/L phosphate buffer with a pH of 6.8) was prepared, a Na2CO3 solution with a concentration of 0.2 mol/L was prepared, and α-glucosidase solution (0.8 U/ml of α-glucosidase dissolved in 0.1 mol/L phosphate buffer with a pH of 6.8) was prepared. After the solutions were prepared, the following two groups were set for determination: [table] After preparing according to the above table, the resulting solution was shaken in a water bath at 37° C. for 10 min, followed by adding 100 μL of enzyme solution and continuing to shake in the water bath at 37° C. for 10 min. Finally, 50 μL of Na2CO3 solution was added, and the absorbance was measured at 405 nm. The formula for calculating the α-glucosidase inhibition rate is as follows: [formula]
“AGAGPQGRP (The sequence is synthetized) [SEQ ID NO: 2, small peptide screened from cooked millet prolamin]” showed a α-glucosidase inhibition rate of 31.57%.
The figure for “FALQGAAFLGSA (The sequence is synthetized) [SEQ ID NO: 3, small peptide screened from cooked millet prolamin]” is 17.67%.
The substance “KAHAALGAK (The sequence is synthetized) [SEQ ID NO: 6, small peptide screened from cooked millet prolamin]” came in with a α-glucosidase inhibition rate of 13.77%.
The figure for “KTGSGAEGMHGGK (The sequence is synthetized) [SEQ ID NO: 5, small peptide screened from cooked millet prolamin]” is 15.64%.
Turning to “QQLRPF (The sequence is synthetized) [SEQ ID NO: 1, small peptide screened from cooked millet prolamin]”, the α-glucosidase inhibition rate is listed as 32.67%.
In the case of “QQQQLLR (The sequence is synthetized) [SEQ ID NO: 4, small peptide screened from cooked millet prolamin]”, the α-glucosidase inhibition rate was 15.94%.

The values are drawn from patent US11976098B2, “Cooked millet prolamin peptide for inhibiting alpha-amylase and alpha-glucosidase” (China Agricultural University, priority 2022, dated 2024).
